From paper PMC10812672, “Short Antimicrobial Peptide Derived from the Venom Gland Transcriptome of Pamphobeteus verdolaga Increases Gentamicin Susceptibility of Multidrug-Resistant Klebsiella pneumoniae” (Antibiotics, 2023)
Ends that are not written are not given here.

Columns and labels:
E. coli ATCC® 25922 [1] = type: cell-based, Escherichia coli; settings: CLSI broth microdilution, Mueller-Hinton broth, peptide 30 µM, ~6 × 10^6 CFU/mL, 24 h 37 °C, OD600; triplicate, three independent assays; NA = no activity
Method: (§1) Activity screening was conducted using the broth microdilution method at a fixed peptide concentration of 30 µM against E. coli ATCC® 8739 and 25922, as well as S. aureus ATCC® 6538 and 29213. The bacterial density used for screening was approximately 6 × 10^6 CFU/mL [30]. Peptide activity measurements were conducted in terms of the growth inhibition percentage. No dose-response curves were generated during the screening phase as a resource optimization strategy in the initial activity evaluation. […] For S. aureus ATCC® 6538 and S. aureus ATCC® 29213, growth inhibition ranged from 0% to 140% and 0% to 98%, respectively (Table 1).
(§2) The evaluation of the antimicrobial activity of the peptides was conducted using the CLSI’s broth microdilution method for bacterial susceptibility testing. For the screening phase, peptides were evaluated at a single 30 μM concentration, in triplicate and in three independent assays, against the E. coli ATCC® 8739, E. coli ATCC® 25922, S. aureus ATCC® 6538, or S. aureus ATCC® 29213 reference USP and CLSI strains. For the determination of MIC, MBC, or IC50, peptides or antibiotics were evaluated in concentrations between 1.56–200 µM. These evaluations were conducted in triplicate and in three independent assays, against the E. coli ATCC® 25922, S. aureus ATCC® 29213, E. faecalis ATCC® 49532, P. aeruginosa ATCC® 9027, and K. pneumoniae ATCC® BAA-1705, or the clinically isolated MDR strain. In detail, 1 mL of a glycerol stock solution of the ATCC® or clinically isolated bacterial strain was added to 9 mL of Mueller-Hinton Broth and incubated for 18 h, 180 rpm and 37 °C (Incubator 1000, Heidolph Instruments, Schwabach, Germany). After the incubation, 1 mL of the previous solution was transferred to a new recipient containing 9 mL of fresh Mueller-Hinton broth and incubated for 4 h, 180 rpm and 37 °C (Incubator 1000, Heidolph Instruments, Schwabach, Germany). During the second incubation, the peptides or the antibiotics were dissolved in PBS pH 7.20 in concentrations between 19.53–2500 µM (MC5 Micro Balance, Sartorius AG, Göttingen, Germany). An amount of 10 µL of either peptide or antibiotic was dispensed in triplicate in 96-well flat bottom culture plates, along with 10 µL of PBS (Negative activity control), BTM-P1 (Positive activity control), or 10 µL of Mueller-Hinton broth (Blank); then, 110 µL of Mueller-Hinton broth was poured in all wells. Following this, the bacteria were suspended in Mueller-Hinton broth up to a concentration of approximately 1.50 × 10^8 CFU/mL, as measured by optical density at 600 nm between 0.06 to 0.11 (0.5 McFarland standard), in a Multiskan SkyHigh spectrophotometer (ThermoFisher Scientific, Waltham, MA, USA). Amounts of 5 µL of the 1.50 × 10^8 CFU/mL suspension were added to each well (except for the blank) for a final well concentration of approximately 6 × 10^6 CFU/mL. The plate was incubated for 24 h at 37 °C (BE 500, Memmert GmbH, Büchenbach, Germany) and optical density was measured at 600 nm in a Multiskan SkyHigh spectrophotometer (ThermoFisher Scientific, Waltham, MI, USA). Following the measurement of optical density, plates were visually inspected to determine the MIC. Subsequently, 100 µL of the concentration associated to the MIC and 100 µL of the next higher concentration were added to Petri dishes containing Mueller-Hinton Agar. The dishes were then incubated for 24 h at 37 °C (BE 500, Memmert GmbH, Büchenbach, Germany). After incubation, the Petri dishes were visually inspected, and the MBC was determined in the absence of growth. IC50 values were interpolated from regressions with correlation values above 0.70. Growth inhibition percentages were calculated as follows: Growth inhibition %=1−AbsPEPTIDE or ANTIBIOTIC−Median AbsBLANK/Median AbsPBS−Median AbsBLANK×100

E. coli ATCC® 8739 = type: cell-based, Escherichia coli; settings: CLSI broth microdilution, Mueller-Hinton broth, peptide 30 µM, ~6 × 10^6 CFU/mL, 24 h 37 °C, OD600; triplicate, three independent assays; NA = no activity
Method: as §1, §2

S. aureus ATCC® 29213 = type: cell-based, Staphylococcus aureus; settings: CLSI broth microdilution, Mueller-Hinton broth, peptide 30 µM, ~6 × 10^6 CFU/mL, 24 h 37 °C, OD600; triplicate, three independent assays; NA = no activity
Method: as §1, §2

S. aureus ATCC® 6538 = type: cell-based, Staphylococcus aureus; settings: CLSI broth microdilution, Mueller-Hinton broth, peptide 30 µM, ~6 × 10^6 CFU/mL, 24 h 37 °C, OD600; triplicate, three independent assays; NA = no activity
Method: as §1, §2

E. coli ATCC® 25922 [2] = type: cell-based, Escherichia coli; settings: for MIC: 1.56–200 µM, visual inspection, triplicate, three independent assays; for MIC / MBC: 24 h 37 °C; for MBC: plating on Mueller-Hinton agar, absence of growth
Method: (§3) The nine AMPs identified in the initial screening were evaluated at concentrations between 1.56–200 µM, against E. coli ATCC® 25922, S. aureus ATCC® 29213, E. faecalis ATCC® 49532, P. aeruginosa ATCC® 9027, and K. pneumoniae ATCC® BAA-1705 (Supplementary Figures S2–S6). […] Only PvAMP66 and PvAMP172 reached the MBC for S. aureus at 50 µM and 100 µM, respectively (Table 2).
as §2

P. aeruginosa ATCC® 9027 = type: cell-based, Pseudomonas aeruginosa; settings: for MIC: 1.56–200 µM, 24 h 37 °C, visual inspection, triplicate, three independent assays; for MBC: plating on Mueller-Hinton agar, absence of growth
Method: as §3, §2

[3] = system: multidrug-resistant (MDR) strain of K. pneumoniae, clinical isolate; assay: microbe, parasite or virus in culture; type: cell-based, Klebsiella pneumoniae; settings: for MIC / Classification at 10^6 CFU/mL: MDR K. pneumoniae clinical isolate; for Classification at 10^6 CFU/mL: CLSI classification
Method: A multidrug-resistant (MDR) strain of K. pneumoniae was identified and isolated from a tertiary-level hospital in Medellin, Colombia, using the VITEK-2 system (bioMérieux, Marcy-l’Étoile, France). The MDR strain was evaluated against several antibiotics at concentrations of 1.56–100 μM. […] In contrast, the strain was susceptible to doxycycline (Supplementary Figure S7g) and chloramphenicol (Supplementary Figure S7h), with MICs of 50 μM and 100 µM, respectively (Table 3). […] All of P. verdolaga’s AMPs were evaluated against the clinical isolate at concentrations of 1.56–200 µM (Supplementary Figure S8). […] A growth inhibition kinetic assay was conducted. […] All of P. verdolaga’s peptides at 100 μM induced morphological changes in the MDR K. pneumoniae, indicating membrane interactions, even though no significant inhibition was observed (Supplementary Figure S9).
as §2, with “Growth inhibition percentages were calculated as follows: Growth inhibition %=1−AbsPEPTIDE or ANTIBIOTIC−Median AbsBLANK/Median AbsPBS−Median AbsBLANK×100” left out

[4] = Klebsiella pneumoniae, 24 h, peptides 1.56–200 µM, antibiotics 1.56–100 µM, 24 h 37 °C

| Molecule | E. coli ATCC® 25922 (Inhibition %) (E. coli ATCC® 25922 [1]) | S. aureus ATCC® 6538 (Inhibition %) (S. aureus ATCC® 6538) | MIC (E. coli ATCC® 25922 [2]) | E. coli ATCC® 8739 (Inhibition %) (E. coli ATCC® 8739) | inhibition (S. aureus ATCC® 29213) | other results |
| --- | --- | --- | --- | --- | --- | --- |
| FSGNKLLPG-NH2 [PvAMP81] | 31.88 ± 2.18 % | – | – | – | – | inhibition (E. coli ATCC® 8739): 8.57 ± 4.46% |
| CRRVCYKNR CVTYCRG (disulfide) [PvAMP169, predicted P. verdolaga AMP] | 55.69 ± 4.65 % | – | – | – | – | inhibition (E. coli ATCC® 8739): 13.6 ± 5.92% |
| YRARCVIYC-NH2 (disulfide) [PvAMP69, predicted P. verdolaga AMP] | 19.08 ± 0.12 % | 32.32 ± 7.00 % | 200 µM | – | – | inhibition (E. coli ATCC® 8739): 1.75 ± 9.78%; S. aureus ATCC® 29213 (Inhibition %) (S. aureus ATCC® 29213): 29.81 ± 3.31 %; MBC (E. coli ATCC® 25922 [2]): 200 µM |
| QCRKLCFRNRCLTYCRGRG-NH2 (disulfide (positions not given here)) [PvAMP183, predicted P. verdolaga AMP] | 64.66 ± 1.26 % | 47.36 ± 1.27 % | 25 µM | 48.26 ± 2.41 % | 4.71 ± 21.9% | IC50 (E. coli ATCC® 25922 [2]; growth inhibition OD600, interpolated from regression, 95% confidence interval in parentheses, read-out: IC50): 26.9 µM; MBC (E. coli ATCC® 25922 [2]): 50 µM; MIC (P. aeruginosa ATCC® 9027): 50 µM; IC50 (P. aeruginosa ATCC® 9027; growth inhibition OD600, 95% confidence interval in parentheses): 48.3 µM; MBC (P. aeruginosa ATCC® 9027): 100 µM |
| GRIFRLLRK-NH2 [PvAMP82] | 74.94 ± 14.27 % | 43.03 ± 6.37 % | 100 µM | 64.01 ± 4.28 % | – | S. aureus ATCC® 29213 (Inhibition %) (S. aureus ATCC® 29213): 43.44 ± 10.24 %; MBC (E. coli ATCC® 25922 [2]): 100 µM; MIC (P. aeruginosa ATCC® 9027): 200 µM; MBC (P. aeruginosa ATCC® 9027): 200 µM |
| SLWGMWR-NH2 [PvAMP7] | 18.21 ± 2.54 % | 37.89 ± 1.50 % | 200 µM | 26.74 ± 0.68 % | – | S. aureus ATCC® 29213 (Inhibition %) (S. aureus ATCC® 29213): 23.66 ± 3.34 % |
| RSVLKAHCRICRRRG-NH2 (disulfide) [PvAMP164, predicted P. verdolaga AMP] | 30.10 ± 3.90 % | 24.49 ± 10.18 % | 200 µM | 20.51 ± 4.31 % | – | S. aureus ATCC® 29213 (Inhibition %) (S. aureus ATCC® 29213): 12.25 ± 1.29 %; MBC (E. coli ATCC® 25922 [2]): 200 µM; MIC (P. aeruginosa ATCC® 9027): 100 µM; MBC (P. aeruginosa ATCC® 9027): 100 µM |
| FLGKNLG-NH2 [PvAMP15] | – | 43.62 ± 10.56 % | – | – | 27.5 ± 29.7% | – |
| ILKPFMLRR-NH2 [PvAMP84] | – | – | – | 24.29 ± 6.74 % | – | inhibition (E. coli ATCC® 25922 [1]): 11.3 ± 3.72% |
| LLSKIFG-NH2 [PvAMP16] | – | 42.06 ± 4.29 % | – | – | 13.8 ± 6.48% | – |
| LLTGIKS-NH2 [PvAMP30] | – | 35.52 ± 7.29 % | – | – | 7.34 ± 10.3% | – |
| Cc1onc(-c2c(Cl)cccc2Cl)c1C(=O)N[C@@H]1C(=O)N2[C@@H]1SC(C)(C)[C@@H]2C(=O)O [dicloxacillin] | – | – | – | – | – | inhibition at 100 µM ([3]; Klebsiella pneumoniae, read-out: maximum growth inhibition): ≤ 20% |
| SLFKFLA-NH2 [PvAMP8] | – | 47.95 ± 3.62 % | – | – | 11.9 ± 8.93% | – |
| C[C@H]1c2cccc(O)c2C(=O)C2=C(O)[C@]3(O)C(=O)C(C(N)=O)=C(O)[C@@H](N(C)C)[C@@H]3[C@@H](O)[C@@H]21 [Doxycycline, doxycycline] | – | – | – | – | – | IC50 ([3]; Klebsiella pneumoniae): 38.1 µM; MIC [3, 4]: 50 µM; MIC ([3]; Klebsiella pneumoniae): 3.21 µg/mL; Classification at 10^6 CFU/mL [3]: Susceptible |
| O=C(N[C@H](CO)[C@H](O)c1ccc([N+](=O)[O-])cc1)C(Cl)Cl [Chloramphenicol, chloramphenicol] | – | – | – | – | – | IC50 ([3]; Klebsiella pneumoniae): 56.2 µM; MIC [3, 4]: 100 µM; MIC ([3]; Klebsiella pneumoniae): 4.04 µg/mL; Classification at 10^6 CFU/mL [3]: Susceptible |
